Test results from patent US6534524B1, “Indazole compounds and pharmaceutical compositions for inhibiting protein kinases, and methods for their use” (Agouron Pharmaceuticals, Inc., priority 1999, dated 2003).

Tested on: human umbilical vein endothelial cells (HUVEC)
Assay: HUVEC proliferation assay (VEGF-stimulated, MTT)
Format: cell-based
Conditions: Library III; HUVEC proliferation; nominal concentration of 0.5 nM; crude reaction mixtures

O=C(Nc1ccc(F)cc1)c1ccccc1Sc1ccc2c(/C=C/c3ccccn3)n[nH]c2c1
% inhibition: −1%

O=C(Nc1ccc2c(c1)OCO2)c1ccccc1Sc1ccc2c(/C=C/c3ccccn3)n[nH]c2c1
% inhibition: 9%

O=C(Nc1cc2ccccc2cc1O)c1ccccc1Sc1ccc2c(/C=C/c3ccccn3)n[nH]c2c1
% inhibition: 18%

COc1cc(NC(=O)c2ccccc2Sc2ccc3c(/C=C/c4ccccn4)n[nH]c3c2)cc(C(F)(F)F)c1
% inhibition: 10%

O=C(Nc1cccc2ncccc12)c1ccccc1Sc1ccc2c(/C=C/c3ccccn3)n[nH]c2c1
% inhibition: −37%

O=C(Nc1ccc2[nH]ccc2c1)c1ccccc1Sc1ccc2c(/C=C/c3ccccn3)n[nH]c2c1
% inhibition: 43%

O=C(Nc1cccc(OC(F)(F)F)c1)c1ccccc1Sc1ccc2c(/C=C/c3ccccn3)n[nH]c2c1
% inhibition: 5%

O=C(Nc1ccc(C2CCCCC2)cc1)c1ccccc1Sc1ccc2c(/C=C/c3ccccn3)n[nH]c2c1
% inhibition: 1%

O=C(Nc1ccc(C(F)(F)F)cc1)c1ccccc1Sc1ccc2c(/C=C/c3ccccn3)n[nH]c2c1
% inhibition: −3%

N#CCc1ccc(NC(=O)c2ccccc2Sc2ccc3c(/C=C/c4ccccn4)n[nH]c3c2)cc1
% inhibition: −13%

CC(C)(C)c1ccc(CNC(=O)c2ccccc2Sc2ccc3c(/C=C/c4ccccn4)n[nH]c3c2)cc1
% inhibition: −1%

CC(C)(C)c1ccc(NC(=O)c2ccccc2Sc2ccc3c(/C=C/c4ccccn4)n[nH]c3c2)cc1
% inhibition: −1%

CCOc1ccc(NC(=O)c2ccccc2Sc2ccc3c(/C=C/c4ccccn4)n[nH]c3c2)cc1
% inhibition: 16%

O=C(Nc1nccc2ccccc12)c1ccccc1Sc1ccc2c(/C=C/c3ccccn3)n[nH]c2c1
% inhibition: 4%

O=C(Nc1ccc(Cl)cn1)c1ccccc1Sc1ccc2c(/C=C/c3ccccn3)n[nH]c2c1
% inhibition: −23%

Cc1ccc(NC(=O)c2ccccc2Sc2ccc3c(/C=C/c4ccccn4)n[nH]c3c2)nc1
% inhibition: −20%

O=C(Nc1nc2ccccc2s1)c1ccccc1Sc1ccc2c(/C=C/c3ccccn3)n[nH]c2c1
% inhibition: −15%

Cc1cccc(NC(=O)c2ccccc2Sc2ccc3c(/C=C/c4ccccn4)n[nH]c3c2)n1
% inhibition: 10%

Cc1cccnc1NC(=O)c1ccccc1Sc1ccc2c(/C=C/c3ccccn3)n[nH]c2c1
% inhibition: −18%

O=C(NC1CCCc2ccccc21)c1ccccc1Sc1ccc2c(/C=C/c3ccccn3)n[nH]c2c1 (stereo not shown)
% inhibition: 1%

COC1C=CC(CNC(=O)c2ccccc2Sc2ccc3c(/C=C/c4ccccn4)n[nH]c3c2)(OC)O1 (stereo not shown)
% inhibition: 0%

O=C(Nc1cc(-c2cccs2)n[nH]1)c1ccccc1Sc1ccc2c(/C=C/c3ccccn3)n[nH]c2c1
% inhibition: −11%

O=C(Nc1ccc2[nH]ncc2c1)c1ccccc1Sc1ccc2c(/C=C/c3ccccn3)n[nH]c2c1
% inhibition: 22%

O=C(NC1(CO)CCCC1)c1ccccc1Sc1ccc2c(/C=C/c3ccccn3)n[nH]c2c1
% inhibition: −5%

CC(C)[C@@H](CO)NC(=O)c1ccccc1Sc1ccc2c(/C=C/c3ccccn3)n[nH]c2c1
% inhibition: −19%

O=C(Nc1ccc2[nH]nnc2c1)c1ccccc1Sc1ccc2c(/C=C/c3ccccn3)n[nH]c2c1
% inhibition: −7%

O=C(NC[C@H](O)c1ccccc1)c1ccccc1Sc1ccc2c(/C=C/c3ccccn3)n[nH]c2c1
% inhibition: −34%

O=C(NCC1COc2ccccc2O1)c1ccccc1Sc1ccc2c(/C=C/c3ccccn3)n[nH]c2c1 (stereo not shown)
% inhibition: −13%

COc1ccc(CNC(=O)c2ccccc2Sc2ccc3c(/C=C/c4ccccn4)n[nH]c3c2)c(OC)c1
% inhibition: 13%

O=C(Nc1ccc(Cl)cc1CO)c1ccccc1Sc1ccc2c(/C=C/c3ccccn3)n[nH]c2c1
% inhibition: 48%

O=C(NC[C@@H]1CCCO1)c1ccccc1Sc1ccc2c(/C=C/c3ccccn3)n[nH]c2c1
% inhibition: −11%

COc1ccc(NC(=O)c2ccccc2Sc2ccc3c(/C=C/c4ccccn4)n[nH]c3c2)cc1OC
% inhibition: 1%

COc1ccc(Cl)cc1NC(=O)c1ccccc1Sc1ccc2c(/C=C/c3ccccn3)n[nH]c2c1
% inhibition: −4%

COc1ccc(CCNC(=O)c2ccccc2Sc2ccc3c(/C=C/c4ccccn4)n[nH]c3c2)cc1
% inhibition: 10%

O=C(Nc1cnccn1)c1ccccc1Sc1ccc2c(/C=C/c3ccccn3)n[nH]c2c1
% inhibition: −1%

O=C(Nc1cccc2ccccc12)c1ccccc1Sc1ccc2c(/C=C/c3ccccn3)n[nH]c2c1
% inhibition: −33%

O=C(Nc1ccc(O)c(Cl)c1)c1ccccc1Sc1ccc2c(/C=C/c3ccccn3)n[nH]c2c1
% inhibition: −19%

CCCCOc1ccc(NC(=O)c2ccccc2Sc2ccc3c(/C=C/c4ccccn4)n[nH]c3c2)cc1
% inhibition: −6%

COc1ccc(NC(=O)c2ccccc2Sc2ccc3c(/C=C/c4ccccn4)n[nH]c3c2)cc1Cl
% inhibition: 2%

O=C(Nc1ccc(Cl)nn1)c1ccccc1Sc1ccc2c(/C=C/c3ccccn3)n[nH]c2c1
% inhibition: −21%

Cc1ccc(CNC(=O)c2ccccc2Sc2ccc3c(/C=C/c4ccccn4)n[nH]c3c2)cc1Cl
% inhibition: −16%

CCOC(=O)c1ccc(NC(=O)c2ccccc2Sc2ccc3c(/C=C/c4ccccn4)n[nH]c3c2)cc1
% inhibition: −25%

CCN(CC)c1ccc(NC(=O)c2ccccc2Sc2ccc3c(/C=C/c4ccccn4)n[nH]c3c2)cc1
% inhibition: −9%

Cc1ccc(CO)cc1NC(=O)c1ccccc1Sc1ccc2c(/C=C/c3ccccn3)n[nH]c2c1
% inhibition: 1%

O=C(NCCc1cccc(F)c1)c1ccccc1Sc1ccc2c(/C=C/c3ccccn3)n[nH]c2c1
% inhibition: 4%

COc1cc(CNC(=O)c2ccccc2Sc2ccc3c(/C=C/c4ccccn4)n[nH]c3c2)cc(OC)c1
% inhibition: 37%

CCCCOCCCNC(=O)c1ccccc1Sc1ccc2c(/C=C/c3ccccn3)n[nH]c2c1
% inhibition: −12%

O=C(NCCCCCCO)c1ccccc1Sc1ccc2c(/C=C/c3ccccn3)n[nH]c2c1
% inhibition: −20%

CC(C)=CCC/C(C)=C/CNC(=O)c1ccccc1Sc1ccc2c(/C=C/c3ccccn3)n[nH]c2c1
% inhibition: −22%

O=C(NC1Cc2ccccc2C1)c1ccccc1Sc1ccc2c(/C=C/c3ccccn3)n[nH]c2c1
% inhibition: 7%

O=C(Nc1cc(Cl)cc(Cl)c1)c1ccccc1Sc1ccc2c(/C=C/c3ccccn3)n[nH]c2c1
% inhibition: −22%

CC(C)c1ccc(NC(=O)c2ccccc2Sc2ccc3c(/C=C/c4ccccn4)n[nH]c3c2)cc1
% inhibition: −12%

O=C(NCc1ccc(F)c(F)c1)c1ccccc1Sc1ccc2c(/C=C/c3ccccn3)n[nH]c2c1
% inhibition: 0%

Cc1ccc(CNC(=O)c2ccccc2Sc2ccc3c(/C=C/c4ccccn4)n[nH]c3c2)cc1C
% inhibition: −6%

Cc1cccc(CNC(=O)c2ccccc2Sc2ccc3c(/C=C/c4ccccn4)n[nH]c3c2)c1C
% inhibition: 13%

Cc1ccc(CCNC(=O)c2ccccc2Sc2ccc3c(/C=C/c4ccccn4)n[nH]c3c2)cc1
% inhibition: −1%

CCc1ccc(CCNC(=O)c2ccccc2Sc2ccc3c(/C=C/c4ccccn4)n[nH]c3c2)cc1
% inhibition: −11%

O=C(NCc1ccc(F)cc1F)c1ccccc1Sc1ccc2c(/C=C/c3ccccn3)n[nH]c2c1
% inhibition: 11%

O=C(NCc1cc(F)ccc1F)c1ccccc1Sc1ccc2c(/C=C/c3ccccn3)n[nH]c2c1
% inhibition: 15%

O=C(NCCc1ccc(F)cc1)c1ccccc1Sc1ccc2c(/C=C/c3ccccn3)n[nH]c2c1
% inhibition: 3%

CC(NC(=O)c1ccccc1Sc1ccc2c(/C=C/c3ccccn3)n[nH]c2c1)c1ccc(F)cc1 (stereo not shown)
% inhibition: 2%

CC(NC(=O)c1ccccc1Sc1ccc2c(/C=C/c3ccccn3)n[nH]c2c1)c1ccc(Cl)cc1 (stereo not shown)
% inhibition: 14%

O=C(Nc1ccccn1)c1ccccc1Sc1ccc2c(/C=C/c3ccccn3)n[nH]c2c1
% inhibition: −31%

O=C(Nc1cccnc1)c1ccccc1Sc1ccc2c(/C=C/c3ccccn3)n[nH]c2c1
% inhibition: −2%

Cc1oc(NC(=O)c2ccccc2Sc2ccc3c(/C=C/c4ccccn4)n[nH]c3c2)c(C#N)c1C
% inhibition: 13%

Cc1cc(C)nc(NC(=O)c2ccccc2Sc2ccc3c(/C=C/c4ccccn4)n[nH]c3c2)c1
% inhibition: 3%

O=C(Nc1ccncc1)c1ccccc1Sc1ccc2c(/C=C/c3ccccn3)n[nH]c2c1
% inhibition: 6%

COC(=O)c1sccc1NC(=O)c1ccccc1Sc1ccc2c(/C=C/c3ccccn3)n[nH]c2c1
% inhibition: 2%

COC(=O)c1ccc(NC(=O)c2ccccc2Sc2ccc3c(/C=C/c4ccccn4)n[nH]c3c2)cc1
% inhibition: −1%

COC(=O)c1ccccc1NC(=O)c1ccccc1Sc1ccc2c(/C=C/c3ccccn3)n[nH]c2c1
% inhibition: 3%

O=C(NC1CCOC1=O)c1ccccc1Sc1ccc2c(/C=C/c3ccccn3)n[nH]c2c1 (stereo not shown)
% inhibition: 3%

O=C(Nc1ccccc1CO)c1ccccc1Sc1ccc2c(/C=C/c3ccccn3)n[nH]c2c1
% inhibition: 0%

CN(C)c1ccc(NC(=O)c2ccccc2Sc2ccc3c(/C=C/c4ccccn4)n[nH]c3c2)cc1
% inhibition: 18%

NC(=O)c1ccccc1NC(=O)c1ccccc1Sc1ccc2c(/C=C/c3ccccn3)n[nH]c2c1
% inhibition: 7%

O=C(Nc1cccc(O)c1)c1ccccc1Sc1ccc2c(/C=C/c3ccccn3)n[nH]c2c1
% inhibition: −6%

NC(=O)c1ccc(NC(=O)c2ccccc2Sc2ccc3c(/C=C/c4ccccn4)n[nH]c3c2)cc1
% inhibition: 2%

O=C(Nc1cccc(CO)c1)c1ccccc1Sc1ccc2c(/C=C/c3ccccn3)n[nH]c2c1
% inhibition: 14%

O=C(Nc1ccc(CCO)cc1)c1ccccc1Sc1ccc2c(/C=C/c3ccccn3)n[nH]c2c1
% inhibition: 10%

COc1ccc(NC(=O)c2ccccc2Sc2ccc3c(/C=C/c4ccccn4)n[nH]c3c2)cn1
% inhibition: −20%

O=C(Nc1ccncn1)c1ccccc1Sc1ccc2c(/C=C/c3ccccn3)n[nH]c2c1
% inhibition: −10%

NC(=O)c1cccc(NC(=O)c2ccccc2Sc2ccc3c(/C=C/c4ccccn4)n[nH]c3c2)c1
% inhibition: 4%

O=C(Nc1ccccc1CCO)c1ccccc1Sc1ccc2c(/C=C/c3ccccn3)n[nH]c2c1
% inhibition: 10%

CC(=O)c1ccccc1NC(=O)c1ccccc1Sc1ccc2c(/C=C/c3ccccn3)n[nH]c2c1
% inhibition: −7%

COc1ccc(CCNC(=O)c2ccccc2Sc2ccc3c(/C=C/c4ccccn4)n[nH]c3c2)cc1OC
% inhibition: −3%

O=C(NCc1ccc(Cl)cc1)c1ccccc1Sc1ccc2c(/C=C/c3ccccn3)n[nH]c2c1
% inhibition: 4%
